Assay results as given in PubChem BioAssay AID1845211 (Molecular Pharmacology Branch, DTP, NCI, 2023).
“And” between values parts separate entries of the source, which are not always exact repeats. Equal values may be shown once.

Test system: NCI-H322M multicellular tumor spheroids, viability (% test/control)
Assay: Anticancer human tumor NCI-H322M cell line growth inhibition;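 for viability, T/C: spheroids exposed to compound for seven days before readout; 100% = DMSO vehicle control wells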
Conditions: for viability, T/C: stronger effect = lower value
Procedure, shortened: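 Complex tumor spheroids combined malignant cells with endothelial cells and mesenchymal stem cells. DNA-damaging drugs and DNA repair inhibitors were tested alone and in combination, at half-log dilutions down from clinical Cmax (top 10 microM if Cmax unknown), 0.25% DMSO final.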

[1] = curve of first compound, second compound 0.003 µM
[2] = curve of first compound, second compound 0.00949 µM
[3] = curve of first compound, second compound 0.03 µM
[4] = curve of first compound, second compound 0.0949 µM
[5] = curve of first compound, second compound 0.3 µM
[6] = second compound 0.003 µM, first compound 0.0316 µM
[7] = second compound 0.003 µM, first compound 0.1 µM
[8] = second compound 0.003 µM, first compound 0.316 µM
[9] = second compound 0.003 µM, first compound 1 µM
[10] = second compound 0.003 µM, first compound 3.16 µM
[11] = second compound 0.003 µM, first compound 10 µM
[12] = second compound 0.00949 µM, first compound 0.0316 µM
[13] = second compound 0.00949 µM, first compound 0.1 µM
[14] = second compound 0.00949 µM, first compound 0.316 µM
[15] = second compound 0.00949 µM, first compound 1 µM
[16] = second compound 0.00949 µM, first compound 3.16 µM
[17] = second compound 0.00949 µM, first compound 10 µM
[18] = second compound 0.03 µM, first compound 0.0316 µM
[19] = second compound 0.03 µM, first compound 0.1 µM
[20] = second compound 0.03 µM, first compound 0.316 µM
[21] = second compound 0.03 µM, first compound 1 µM
[22] = second compound 0.03 µM, first compound 3.16 µM
[23] = second compound 0.03 µM, first compound 10 µM
[24] = second compound 0.0949 µM, first compound 0.0316 µM
[25] = second compound 0.0949 µM, first compound 0.1 µM
[26] = second compound 0.0949 µM, first compound 0.316 µM
[27] = second compound 0.0949 µM, first compound 1 µM
[28] = second compound 0.0949 µM, first compound 3.16 µM
[29] = second compound 0.0949 µM, first compound 10 µM
[30] = second compound 0.3 µM, first compound 0.0316 µM
[31] = second compound 0.3 µM, first compound 0.1 µM
[32] = second compound 0.3 µM, first compound 0.316 µM
[33] = second compound 0.3 µM, first compound 1 µM
[34] = second compound 0.3 µM, first compound 3.16 µM
[35] = second compound 0.3 µM, first compound 10 µM
[36] = curve of first compound, second compound 1 µM
[37] = curve of first compound, second compound 3.16 µM
[38] = curve of first compound, second compound 10 µM
[39] = curve of first compound, second compound 31.6 µM
[40] = curve of first compound, second compound 100 µM
[41] = second compound 1 µM, first compound 0.00949 µM
[42] = second compound 1 µM, first compound 0.03 µM
[43] = second compound 1 µM, first compound 0.0949 µM
[44] = second compound 1 µM, first compound 0.3 µM
[45] = second compound 1 µM, first compound 0.949 µM
[46] = second compound 1 µM, first compound 3 µM
[47] = second compound 3.16 µM, first compound 0.00949 µM
[48] = second compound 3.16 µM, first compound 0.03 µM
[49] = second compound 3.16 µM, first compound 0.0949 µM
[50] = second compound 3.16 µM, first compound 0.3 µM
[51] = second compound 3.16 µM, first compound 0.949 µM
[52] = second compound 3.16 µM, first compound 3 µM
[53] = second compound 10 µM, first compound 0.00949 µM
[54] = second compound 10 µM, first compound 0.03 µM
[55] = second compound 10 µM, first compound 0.0949 µM
[56] = second compound 10 µM, first compound 0.3 µM
[57] = second compound 10 µM, first compound 0.949 µM
[58] = second compound 10 µM, first compound 3 µM
[59] = second compound 31.6 µM, first compound 0.00949 µM
[60] = second compound 31.6 µM, first compound 0.03 µM
[61] = second compound 31.6 µM, first compound 0.0949 µM
[62] = second compound 31.6 µM, first compound 0.3 µM
[63] = second compound 31.6 µM, first compound 0.949 µM
[64] = second compound 31.6 µM, first compound 3 µM
[65] = second compound 100 µM, first compound 0.00949 µM
[66] = second compound 100 µM, first compound 0.03 µM
[67] = second compound 100 µM, first compound 0.0949 µM
[68] = second compound 100 µM, first compound 0.3 µM
[69] = second compound 100 µM, first compound 0.949 µM
[70] = second compound 100 µM, first compound 3 µM

## CC(C)n1c(=O)n(C)c2cnc3cc(F)c(-c4ccc(OCCCN5CCCCC5)nc4)cc3c21 + CC[C@@]1(O)C(=O)OCc2c1cc1n(c2=O)Cc2cc3c(CN(C)C)c(O)ccc3nc2-1
[1]
  IC50: > 10 µM
[2]
  IC50: > 10 µM
[3]
  IC50: > 10 µM
[4]
  IC50: > 10 µM
[5]
  IC50: > 10 µM
[6]
  viability, T/C: 73.3%
[7]
  viability, T/C: 81.4%
[8]
  viability, T/C: 80%
[9]
  viability, T/C: 75.9%
[10]
  viability, T/C: 77.4%
[11]
  viability, T/C: 73.2%
[12]
  viability, T/C: 73.2%
[13]
  viability, T/C: 72.8%
[14]
  viability, T/C: 77.3%
[15]
  viability, T/C: 75.3%
[16]
  viability, T/C: 85.1%
[17]
  viability, T/C: 71.4%
[18]
  viability, T/C: 67.2%
[19]
  viability, T/C: 73.8%
[20]
  viability, T/C: 65.3%
[21]
  viability, T/C: 72.5%
[22]
  viability, T/C: 73%
[23]
  viability, T/C: 70.2%
[24]
  viability, T/C: 58.8%
[25]
  viability, T/C: 56.5%
[26]
  viability, T/C: 69.3%
[27]
  viability, T/C: 65.2%
[28]
  viability, T/C: 67.2%
[29]
  viability, T/C: 68.6%
[30]
  viability, T/C: 53.3%
[31]
  viability, T/C: 50.3%
[32]
  viability, T/C: 54.7%
[33]
  viability, T/C: 62.6%
[34]
  viability, T/C: 61.6%
[35]
  viability, T/C: 55%

## CNCc1ccc(-c2cc(-c3nc(-c4ccc(S(=O)(=O)C(C)C)cc4)cnc3N)on2)cc1 + Cn1nnc2c(C(N)=O)ncn2c1=O
[36]
  IC50: > 3 µM
[37]
  IC50: > 3 µM
[38]
  IC50: > 3 µM
[39]
  IC50: > 3 µM
[40]
  IC50: > 3 µM
[41]
  viability, T/C: 100%
[42]
  viability, T/C: 104%
[43]
  viability, T/C: 82.1%
[44]
  viability, T/C: 84.1%
[45]
  viability, T/C: 75.7%
[46]
  viability, T/C: 83.3%
[47]
  viability, T/C: 79.5%
[48]
  viability, T/C: 76.2%
[49]
  viability, T/C: 75%
[50]
  viability, T/C: 86.9%
[51]
  viability, T/C: 81.4%
[52]
  viability, T/C: 87.6%
[53]
  viability, T/C: 78.7%
[54]
  viability, T/C: 89%
[55]
  viability, T/C: 77.6%
[56]
  viability, T/C: 99.2%
[57]
  viability, T/C: 81.1%
[58]
  viability, T/C: 75.4%
[59]
  viability, T/C: 110%
[60]
  viability, T/C: 76.2%
[61]
  viability, T/C: 78.3%
[62]
  viability, T/C: 76.3%
[63]
  viability, T/C: 68.4%
[64]
  viability, T/C: 66%
[65]
  viability, T/C: 95.6%
[66]
  viability, T/C: 87%
[67]
  viability, T/C: 81.7%
[68]
  viability, T/C: 71%
[69]
  viability, T/C: 70.1%
[70]
  viability, T/C: 58.3%

## Cc1cc(C)c(CNC(=O)c2cc(-c3ccc(CN4CCOCC4)cc3)cc3c2cnn3C2CCCC2)c(=O)[nH]1 + CC[C@@]1(O)C(=O)OCc2c1cc1n(c2=O)Cc2cc3c(CN(C)C)c(O)ccc3nc2-1
[1]
  IC50: > 10 µM
[2]
  IC50: > 10 µM
[3]
  IC50: > 10 µM
[4]
  IC50: > 10 µM
[5]
  IC50: > 10 µM
[6]
  viability, T/C: 89%
[7]
  viability, T/C: 82.3%
[8]
  viability, T/C: 83.7%
[9]
  viability, T/C: 86.5%
[10]
  viability, T/C: 81.2%
[11]
  viability, T/C: 112%
[12]
  viability, T/C: 76.4%
[13]
  viability, T/C: 80.6%
[14]
  viability, T/C: 86.2%
[15]
  viability, T/C: 81.6%
[16]
  viability, T/C: 79.9%
[17]
  viability, T/C: 105%
[18]
  viability, T/C: 77.3%
[19]
  viability, T/C: 84.9%
[20]
  viability, T/C: 77.3%
[21]
  viability, T/C: 76.7%
[22]
  viability, T/C: 84.8%
[23]
  viability, T/C: 101%
[24]
  viability, T/C: 64.5%
[25]
  viability, T/C: 61.5%
[26]
  viability, T/C: 56.1%
[27]
  viability, T/C: 71.7%
[28]
  viability, T/C: 71.5%
[29]
  viability, T/C: 82.2%
[30]
  viability, T/C: 54.7%
[31]
  viability, T/C: 49.3%
[32]
  viability, T/C: 52.5%
[33]
  viability, T/C: 51.5%
[34]
  viability, T/C: 48.2%
[35]
  viability, T/C: 59.5%

## CC1COCCN1c1cc(-c2ccnn2C)c2ccnc(-c3ccn[nH]3)c2n1 (configuration not stated)
Compound 0.0316 µM
  viability, T/C: 53.9% and 67.8% and 58.9%
Compound 0.1 µM
  viability, T/C: 40.6% and 54% and 49.9%
Compound 0.316 µM
  viability, T/C: 29.4% and 41.8% and 36%
Compound 1 µM
  viability, T/C: 29.7% and 35.6% and 33.4%
Compound 3.16 µM
  viability, T/C: 29.8% and 38.9% and 33.5%
Compound 10 µM
  viability, T/C: 32.7% and 44.9% and 37.6%
Curve of compound
  IC50: 0.0431 µM and 0.144 µM and 0.0714 µM

## Cn1ncnc1[C@H]1c2n[nH]c(=O)c3cc(F)cc(c23)N[C@@H]1c1ccc(F)cc1 + Cn1nnc2c(C(N)=O)ncn2c1=O
[36]
  IC50: > 3 µM
[37]
  IC50: > 3 µM
[38]
  IC50: > 3 µM
[39]
  IC50: > 3 µM
[40]
  IC50: > 3 µM
[41]
  viability, T/C: 89.4%
[42]
  viability, T/C: 79.4%
[43]
  viability, T/C: 87.8%
[44]
  viability, T/C: 81.2%
[45]
  viability, T/C: 88.8%
[46]
  viability, T/C: 70%
[47]
  viability, T/C: 77.9%
[48]
  viability, T/C: 113%
[49]
  viability, T/C: 84.3%
[50]
  viability, T/C: 74.3%
[51]
  viability, T/C: 81.5%
[52]
  viability, T/C: 67.8%
[53]
  viability, T/C: 83.1%
[54]
  viability, T/C: 71%
[55]
  viability, T/C: 73.8%
[56]
  viability, T/C: 76.2%
[57]
  viability, T/C: 77.1%
[58]
  viability, T/C: 59.3%
[59]
  viability, T/C: 90.3%
[60]
  viability, T/C: 74.1%
[61]
  viability, T/C: 78.8%
[62]
  viability, T/C: 76.5%
[63]
  viability, T/C: 70.9%
[64]
  viability, T/C: 69.3%
[65]
  viability, T/C: 92.2%
[66]
  viability, T/C: 68.8%
[67]
  viability, T/C: 64.5%
[68]
  viability, T/C: 68.9%
[69]
  viability, T/C: 59.5%
[70]
  viability, T/C: 57.7%
